{"source": "patent US5292505A", "about": "“Sulphated vinyl polymer in composition for treating retroviral infections” (Stichting Rega VZW, priority 1989, dated 1994)", "origin": "cited, not measured here", "key": {"[1]": {"test_system": "Molt-4 cells co-cultured with HIV-1-infected HUT-78 cells", "conditions": "statement without own test"}, "[2]": {"test_system": "AIDS", "conditions": "AIDS patients, Fischl et al"}}, "data": [{"smiles": "Cc1cn([C@H]2C[C@H](N=[N+]=[N-])[C@@H](CO)O2)c(=O)[nH]c1=O", "note": "[azidothymidine, 3'-azido-2',3'-dideoxythymidine]", "values": [{"measurement": "inhibition of giant cell formation", "setting": "[1]", "value": "does not show such effect"}, {"measurement": "clinical effectiveness", "setting": "[2]", "value": "clinically effective"}]}]}
